{
  "source": "paper PMC8382911",
  "about": "(Molecular Biology and Evolution, 2021)",
  "molecules": {"B1": {"name": "Haloferax volcanii malate dehydrogenase (enzyme, UniProt Q9P9L2 1-304, looked up)", "chain": "MTKVSVIGAAGTVGAAAGYNLALRDVCDELVFVDIPKMEDKTVGQAADTNHGIAYDSNTVVTQGGYEDTAGSDVVVITAGIPRQPGQTRIDLAGDNAPIMDDIGSSLAEYNDDFVSITTSNPVDLLNRHLYETGDRDRHKVIGFGGRLDSARFRYVLSQRFDVPVKNVDATILGEHGDAQVPVFSKVRVDGNDPAFSADEKEEILGDLQESAMDVIERKGATQWGPATGVAHMVEAVLHDTGEVLPGSLVLDGEFGYEDTAFGVPVKLGSNGIEEVVEWDLDDYEADLMDDAAEKLRDQYDEIA", "notes": "malate dehydrogenase (MalDH) of Haloferax volcanii; S6-S8; Tetramer in molar KCl; the oligomeric state depends on salt type and concentration (monomer in 0.2 M KCl); also called H. volc MalDH; MalDH of H. volcanii"}},
  "key": {"N. maga MalDH": {"biological_target": "T1, N. maga MalDH (Natrialba magadii, UniProt D3SVD7)", "T1 construct": "gene mdh; tetrameric MalDH family", "T1 sequence (D3SVD7 1-304)": "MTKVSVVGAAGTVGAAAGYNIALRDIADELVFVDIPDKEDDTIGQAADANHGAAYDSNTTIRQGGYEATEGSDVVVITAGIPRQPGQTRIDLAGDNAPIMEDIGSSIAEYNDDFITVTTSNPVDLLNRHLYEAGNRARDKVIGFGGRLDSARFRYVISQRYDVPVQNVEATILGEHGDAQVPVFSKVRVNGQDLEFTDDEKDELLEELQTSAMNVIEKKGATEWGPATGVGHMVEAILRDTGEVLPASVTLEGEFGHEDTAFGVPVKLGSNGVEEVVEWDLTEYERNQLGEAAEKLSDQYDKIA", "assay": "NADH oxidation at […] nm, OAA concentration profile", "assay_type": "biochemical", "conditions": "3.8 M KCl, 50 mM Tris-HCl pH 7, 25 C, 0.2 mM NADH; no inhibition by excess substrate"}, "[1]": {"tested_on": "Anc78 MalDH (LCAHa) (synthetic construct)", "assay": "NADH oxidation at […] nm, OAA concentration profile", "assay_type": "biochemical", "conditions": "3.8 M KCl, 50 mM Tris-HCl pH 7, 25 C, 0.2 mM NADH; inhibited by excess substrate"}, "Anc80 MalDH": {"biological_target": "T2, Anc80 MalDH (synthetic construct, UniProt Z9KM54M7L8)", "T2 construct": "tetramer", "T2 sequence (Z9KM54M7L8 1-304)": "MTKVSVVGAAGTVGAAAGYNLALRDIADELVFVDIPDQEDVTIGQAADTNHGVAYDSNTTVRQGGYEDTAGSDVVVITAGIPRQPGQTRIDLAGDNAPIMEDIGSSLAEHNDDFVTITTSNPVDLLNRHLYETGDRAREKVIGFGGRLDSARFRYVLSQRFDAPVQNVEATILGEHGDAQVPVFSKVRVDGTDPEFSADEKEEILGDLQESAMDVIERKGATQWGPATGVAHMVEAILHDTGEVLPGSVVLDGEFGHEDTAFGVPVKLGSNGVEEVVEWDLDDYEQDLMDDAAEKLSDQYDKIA", "assay": "NADH oxidation at […] nm, OAA concentration profile", "assay_type": "biochemical", "conditions": "3.8 M KCl, 50 mM Tris-HCl pH 7, 25 C, 0.2 mM NADH; inhibited by excess substrate"}, "H. mari MalDH": {"biological_target": "T3, H. mari MalDH (Haloarcula marismortui, UniProt Q07841)", "T3 construct": "gene mdh; tetramer about 130 kDa", "T3 sequence (Q07841 1-304)": "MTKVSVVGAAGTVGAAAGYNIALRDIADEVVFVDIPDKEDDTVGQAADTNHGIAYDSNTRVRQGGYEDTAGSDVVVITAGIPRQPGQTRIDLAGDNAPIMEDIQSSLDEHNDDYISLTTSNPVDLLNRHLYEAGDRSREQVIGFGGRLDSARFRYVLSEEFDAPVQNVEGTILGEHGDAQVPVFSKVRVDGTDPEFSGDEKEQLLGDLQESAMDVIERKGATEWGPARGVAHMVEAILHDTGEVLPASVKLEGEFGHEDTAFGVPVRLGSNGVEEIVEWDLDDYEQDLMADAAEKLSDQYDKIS", "assay": "NADH oxidation at […] nm, OAA concentration profile", "assay_type": "biochemical", "conditions": "3.8 M KCl, 50 mM Tris-HCl pH 7, 25 C, 0.2 mM NADH; no inhibition by excess substrate"}, "Anc88 MalDH": {"biological_target": "T4, Anc88 MalDH (synthetic construct, UniProt Z9B5L9LSO7)", "T4 sequence (Z9B5L9LSO7 1-304)": "T2 sequence (Z9KM54M7L8 1-304) with L21I, V41D, I204L, G247A, V250K", "assay": "NADH oxidation at […] nm, OAA concentration profile", "assay_type": "biochemical", "conditions": "3.8 M KCl, 50 mM Tris-HCl pH 7, 25 C, 0.2 mM NADH; no inhibition by excess substrate"}, "[2]": {"biological_target": "the molecule itself", "assay": "AUC; sedimentation velocity, 20 °C, 0.1 mg/ml, 50 mM Tris pH 7.0, 0.2 M KF, after 24 h incubation"}, "[3]": {"biological_target": "the molecule itself", "assay": "AUC; sedimentation velocity, 20 °C, 0.1 mg/ml, 50 mM Tris pH 7.0, 0.1 M KCl + 0.05 M MgCl2"}, "[4]": {"biological_target": "the molecule itself", "assay": "AUC; sedimentation velocity, 20 °C, 0.1 mg/ml, 50 mM Tris pH 7.0, 1.0 M KCl"}},
  "note": "Where a chain is given by its changes, count along the chain named. “And” between values parts separate entries of the source, which are not always exact repeats. Identical values can stand only once.",
  "data": [
    {"molecule": "O=C(O)CC(=O)C(=O)O", "note": "[oxaloacetate]", "values": [
      {"measurement": "NADH oxidation at 340 nm, OAA concentration profile", "setting": "N. maga MalDH", "result": "the inhibition by high concentration of OAA is abolished (fig. 7C)"},
      {"measurement": "NADH oxidation at 340 nm, OAA concentration profile", "setting": "[1]", "result": "Anc78 and Anc80 MalDHs show a typical phenomenon of inhibition by an excess of substrate"},
      {"measurement": "NADH oxidation at 340 nm, OAA concentration profile", "setting": "Anc80 MalDH", "result": "Anc78 and Anc80 MalDHs show a typical phenomenon of inhibition by an excess of substrate"},
      {"measurement": "NADH oxidation at 340 nm, OAA concentration profile", "setting": "H. mari MalDH", "result": "H. mari MalDH is not sensitive to inhibition by high concentration of OAA"},
      {"measurement": "NADH oxidation at 340 nm, OAA concentration profile", "setting": "Anc88 MalDH", "result": "(Anc88), the inhibition by high concentration of OAA is abolished (fig. 7C)"}
    ]},
    {"molecule": "B1", "values": [
      {"measurement": "stoichiometry N", "setting": "[2]", "result": "4 and 2"},
      {"measurement": "stoichiometry N", "setting": "[3]", "result": 4},
      {"measurement": "stoichiometry N", "setting": "[4]", "result": 4}
    ]}
  ]
}
